Test results taken from ChEMBL document CHEMBL4837221 (Eur J Med Chem, 2021).
The source made the active and inactive calls. No cut-off for these calls is given here.

What was measured:
[1] = test system: A549; assay: Cytotoxicity against human A549 cells assessed as reduction in cell viability incubated for 72 hrs by MTT assay; type: functional, cell-based; conditions: A549, 72 h
[2] = Inhibition of rat liver TrxR using DTNB and NADPH as substrate preincubated for 10 mins followed by substrate addition; type: tissue-based
[3] = test system: K562; assay: Cytotoxicity against human K562 cells assessed as reduction in cell viability incubated for 72 hrs by MTT assay; type: functional, cell-based; conditions: K562, 72 h
[4] = test system: HepG2; assay: Cytotoxicity against human HepG2 cells assessed as reduction in cell viability incubated for 72 hrs by MTT assay; type: functional, cell-based; conditions: HepG2, 72 h
[5] = test system: U-251; assay: Cytotoxicity against human U-251 cells assessed as reduction in cell viability incubated for 72 hrs by MTT assay; type: functional, cell-based; conditions: U-251, 72 h
[6] = test system: MDA-MB-231; assay: Cytotoxicity against human MDA-MB-231 cells assessed as reduction in cell viability incubated for 72 hrs by MTT assay; type: functional, cell-based; conditions: MDA-MB-231, 72 h
[7] = test system: HUVEC; assay: Cytotoxicity against HUVEC cells assessed as reduction in cell viability incubated for 72 hrs by MTT assay; type: cell-based; conditions: Homo sapiens
[8] = Cytotoxicity against human SHG-44 cells assessed as reduction in cell viability incubated for 72 hrs by MTT assay; type: functional, cell-based; conditions: SHG-44, 72 h
[9] = test system: U-87 MG; assay: Cytotoxicity against human U87 cells assessed as reduction in cell viability incubated for 72 hrs by MTT assay; type: functional, cell-based, U-87MG ATCC
[10] = test system: U-251; assay: Induction of mitochondrial stress in human U-251 cells assessed as decrease in ATP production after 24 hrs by microplate reader analysis; type: functional, cell-based
[11] = test system: C6; assay: Cytotoxicity against rat C6 cells assessed as reduction in cell viability incubated for 72 hrs by MTT assay; type: functional, cell-based; conditions: C6, 72 h
[12] = Cytotoxicity against human U87/TMZ cells assessed as reduction in cell viability incubated for 72 hrs by MTT assay; type: functional, cell-based
[13] = test system: U-251; assay: Inhibition of mitochondrial respiration in human U-251 cells assessed as reduction in oxygen consumption rate at 10 uM pretreated for 24 hrs with sequential addition of oligomycin, FCCP and antimycin-A by seahorse XFe96 analyser based assay; type: functional, cell-based
[14] = Cytotoxicity against human […] cells assessed as reduction in cell viability incubated for 72 hrs by MTT assay; type: functional, cell-based
[15] = test system: U-251; assay: Inhibition of TrxR in human U-251 cells at 10 uM measured after 12 hrs by colorimetry; type: cell-based

IC50 [2] [µM] | Compound | IC50 [1] [µM] | IC50 [3] [µM] | IC50 [4] [µM] | IC50 [5] [µM] | IC50 [6] [µM] | IC50 [7] [µM] | IC50 [8] [µM] | IC50 [9] [µM] | Activity [10] | IC50 [11] [µM] | IC50 [12] [µM] | Activity [13] | IC50 [14] [µM] | inhibition [15]
> 100 | OCCCCCCCCCC[P+](c1ccccc1)(c1ccccc1)c1ccccc1 | > 100 | > 100 | > 100 | > 100 | > 100 | – | – | – | – | – | – | – | – | –
– | COc1cc(/C=C/C(=O)CC(=O)/C=C/c2ccc(O)c(OC)c2)ccc1O [CURCUMIN] | 24.2 | 46.8 | – | 25.8 | 31.4 | – | – | – | – | – | – | – | – | –
0.77 | COc1cc(/C=C/C(=O)/C=C(O)/C=C/c2ccc(O)cc2)ccc1O | 5.64 | 3.86 | 10.7 | 2.72 | 9.36 | 32.6 | 4.98 | 5.45 | inactive | 7.16 | 21.5 | inactive | 17.3 | Active
